This is an account of results in patent publication US20110152246A1, “NOVEL INHIBITORS OF HEPATITIS C VIRUS REPLICATION” (InterMune, Inc., priority 2009, published 2011).

Where two headings read alike, the source gives them in different places.

The subject of this experiment is Huh7 cells containing HCV replicons with an integrated luciferase reporter gene. Kind of experiment: HCV Replicon Assay (luciferase reporter). Type of experiment: cell-based. The following applies: Hepatitis C virus. On the procedure:
Huh7 cells containing HCV replicons with an integrated luciferase reporter gene are maintained at 37° C. in 5% CO2 in Dulbecco's modified Eagle's medium (DMEM; Mediatech, Herndon, Va.) containing 10% heat-inactivated fetal bovine serum (FBS; Mediatech, Herndon, Va.), 2 mM L-glutamine (Cambrex Bioscience, Walkersville, Md.), 1% non essential amino acids (Lonza, Walkersville, Md.), 50 IU/mL penicillin (Mediatech, Herndon, Va.), […] streptomycin (Mediatech, Herndon, Va.) and 0.5 mg/mL G418 (Promega, Madison, Wis.). Cells are sub-divided 1:3 or 4 every 2-3 days.
24 h prior to the assay, Huh7 cells containing sub-genomic HCV replicons are collected, counted, and plated in Nunclon 96-well tissue culture plates (ThermoFisher, Rochester, N.Y.) at 5000 cells/well in […] standard maintenance medium (above) and incubated in the conditions above. To initiate the assay, culture medium is removed, and replaced with […] maintenance media lacking G418. Test compounds are serially diluted three-fold in dimethyl sulfoxide (DMSO) in two duplicate rows for each EC50 determination. These compound solutions are diluted ten-fold in DMEM lacking serum and G418. […] of these compound solutions in media are added to duplicate tissue culture plates. The final volume is 100 μL with a DMSO concentration of 1%. Compound concentrations are adjusted to appropriately define a dose response curve. Typical dilution series range from […] to 1.69 nM final concentrations to 1 nM to 16.9 fM final. Plates are incubated at 37° C. for approximately 48 hr.
Following incubation, media is removed from one of the two duplicate plates and replicon-reporter luciferase activity is measured using a Bright-Glo luciferase assay kit (Promega, Madison, Wis.) according to manufacturer's instructions. Semi-log plots of luciferase activity versus the logarithm of compound concentration are fit to a 4-parameter logistic function using XLfit software (IDBS Inc., Guildford, UK) to determine EC50.

Where [1] appears, read: Huh-7, Huh7 HCV replicon cells, luciferase activity, approximately 48 hr incubation, read-out: EC50.

For `COC(=O)N[C@H](C(=O)N1CCC[C@H]1C(=O)Nc1ccc2cc(-c3cnc(NC(=O)[C@@H]4CCCN4C(=O)[C@@H](NC(=O)OC)C(C)C)nc3)ccc2n1)C(C)C` [Compound 212], the EC50 under setting [1] was below 10 nM. The same measure, in the same setting: under `O=C(Nc1ccc(NC(=O)[C@@H]2CCCN2C(=O)Cc2ccccc2)cc1)c1ccc(NC(=O)[C@@H]2CCCN2C(=O)Cc2ccccc2)cc1` [Compound 101] stands 10 to 100 nM. Same read-out and setting: under `COC(=O)N[C@H](C(=O)N1CCC[C@H]1C(=O)Nc1ccc(-c2ccc3nc(NC(=O)[C@@H]4CCCN4C(=O)[C@@H](NC(=O)OC)C(C)C)ccc3c2)cn1)C(C)C` [Compound 217] stands below 10 nM; under `O=C(Nc1ccc2cc(-c3ccc(NC(=O)[C@@H]4CCCN4C(=O)Cc4ccccc4)nc3)ccc2c1)[C@@H]1CCCN1C(=O)Cc1ccccc1` [Compound 206], below 10 nM.

Consider `COC(=O)N[C@H](C(=O)N1CCC[C@H]1C(=O)Nc1ccc(-c2ccc3cc(NC(=O)[C@@H]4CCCN4C(=O)[C@@H](NC(=O)OC)C(C)C)ccc3c2)cc1)C(C)C` [Compound 201], for which the EC50 under setting [1] is below 10 nM. Consider `O=C(Nc1ccc2cc(NC(=O)[C@@H]3CCCN3C(=O)Cc3ccccc3)ccc2c1)[C@@H]1CCCN1C(=O)Cc1ccccc1` [Compound 210], for which, under setting [1], the 50% effective concentration (EC50) was above 100 nM.

For the molecule `COC(=O)N[C@H](C(=O)N1CCC[C@H]1C(=O)OCC(=O)c1ccc(-c2ccc(C(=O)COC(=O)[C@@H]3CCCN3C(=O)[C@@H](NC(=O)OC)C(C)C)c3c2CCCC3)cc1)C(C)C` [Compound 303], the EC50 under setting [1] was 10 to 100 nM. For `COC(=O)N[C@H](C(=O)N1CCOC[C@H]1c1nc(-c2ccc3cc(-c4ccc5[nH]c([C@@H]6COCCN6C(=O)[C@@H](NC(=O)OC)C(C)C)nc5c4)ccc3c2)c[nH]1)C(C)C` [Compound 419], the EC50 under setting [1] was below 10 nM. Still for that read-out and setting: to `COC(=O)N[C@H](C(=O)N1CCC[C@H]1c1nc(-c2ccc(-c3ccc(-c4c[nH]c([C@@H]5CCCN5C(=O)[C@@H](NC(=O)OC)C(C)C)n4)c4[nH]cc(C)c34)cc2)c[nH]1)C(C)C` [Compound 330] belongs below 10 nM; to `COC(=O)N[C@H](C(=O)N1CCC[C@H]1C(=O)Nc1ccc2cc(-c3ccc(NC(=O)[C@@H]4CCCN4C(=O)Cc4ccccc4)cc3)ccc2c1)C(C)C` [Compound 203], below 10 nM. Regarding `COC(=O)N[C@H](C(=O)N1CCC[C@H]1C(=O)Nc1ccc(C(=O)Nc2ccc(NC(=O)[C@@H]3CCCN3C(=O)Cc3ccccc3)cc2)cc1)C(C)C` [Compound 104], the EC50 (Huh-7, 48 h, read-out: EC50 nM) lay within 10 to 100 nM. As to `COC(=O)N[C@H](C(=O)N1CCC[C@H]1c1ncc(-c2ccc(-c3ccc(-c4cnc([C@@H]5CCCN5C(=O)[C@@H](NC(=O)OC)C(C)C)[nH]4)c4c3OCCO4)cc2)[nH]1)C(C)C` [Compound 309], the EC50 under setting [1] is below 10 nM. Same read-out and setting: to `COC(=O)N[C@H](C(=O)N1CCC[C@@]1(C)c1nc(-c2ccc(-c3ccc(-c4c[nH]c([C@]5(C)CCCN5C(=O)[C@@H](NC(=O)OC)C(C)C)n4)c4scnc34)cc2)c[nH]1)C(C)C` [Compound 329] belongs below 10 nM. For `COC(=O)N[C@H](C(=O)N1CCC[C@H]1C(=O)Nc1ccc(NC(=O)c2ccc(NC(=O)[C@@H]3CCCN3C(=O)[C@@H](NC(=O)OC)C(C)C)cc2)cc1)C(C)C` [Compound 102], the EC50 (Huh-7, 48 h, read-out: EC50 nM) is 10 to 100 nM. Regarding `COC(=O)N[C@H](C(=O)N1CCC[C@H]1C(=O)Nc1ccc(-c2ccc3cc(NC(=O)[C@@H]4CCCN4C(=O)Cc4ccccc4)ccc3c2)cn1)C(C)C` [Compound 208], the EC50 under setting [1] was below 10 nM. The same measure, in the same setting: to `COC(=O)N[C@H](C(=O)N1CCC[C@H]1C(=O)Nc1ccc(-c2nc3ccc(NC(=O)[C@@H]4CCCN4C(=O)[C@@H](NC(=O)OC)C(C)C)cc3s2)cc1)C(C)C` [Compound 403] belongs below 10 nM.

Consider `COC(=O)N[C@H](C(=O)N1CCC[C@H]1c1nc(-c2ccc(-c3ccc(-c4c[nH]c([C@@H]5CCCN5C(=O)[C@@H](NC(=O)OC)C(C)C)n4)c4c3OCO4)cc2)c[nH]1)C(C)C` [Compound 312], for which the concentration for a half-maximal effect (EC50) under setting [1] was below 10 nM. For the molecule `COC(=O)N[C@H](C(=O)N1CCC[C@H]1C(=O)Nc1ccc(NC(=O)c2ccc(NC(=O)[C@@H]3CCCN3C(=O)Cc3ccccc3)cc2)cc1)C(C)C` [Compound 103], where the note is “Huh-7, 48 h, read-out: EC50 nM”, the EC50 is 10 to 100 nM. `CC(C)[C@H](Nc1ncccn1)C(=O)N1CCC[C@H]1c1nc(-c2ccc3cc(-c4ccc5[nH]c([C@@H]6CCCN6C(=O)[C@@H](Nc6ncccn6)C(C)C)nc5c4)ccc3c2)c[nH]1` [Compound 420]: under setting [1], the concentration for a half-maximal effect (EC50) was below 10 nM. With `O=C(Nc1ccc(-c2ccc3cc(NC(=O)[C@@H]4CCCN4C(=O)Cc4ccccc4)ccc3c2)cc1)[C@@H]1CCCN1C(=O)Cc1ccccc1` [Compound 211], the EC50 under setting [1] was below 10 nM. Still for that read-out and setting: to `O=S(=O)(Cc1ccccc1)N1CCC[C@H]1c1ncc(-c2ccc(-c3ccc(-c4cnc([C@@H]5CCCN5S(=O)(=O)Cc5ccccc5)[nH]4)c4ccccc34)cc2)[nH]1` [Compound 326] belongs above 100 nM.

Regarding `COC(=O)N[C@H](C(=O)N1CCCC[C@H]1c1nc(-c2ccc3cc(-c4ccc5[nH]c([C@@H]6CCCCN6C(=O)[C@@H](NC(=O)OC)C(C)C)nc5c4)ccc3c2)c[nH]1)C(C)C` [Compound 418], the EC50 under setting [1] is below 10 nM.

As for `COC(=O)N[C@H](C(=O)N1CCC[C@H]1c1nc(-c2ccc(-c3ccc4cc(-c5c[nH]c([C@]6(C)CCCN6C(=O)[C@@H](NC(=O)OC)C(C)C)n5)ccc4c3)cc2)c[nH]1)C(C)C` [Compound 222], the EC50 under setting [1] was below 10 nM. The same measure, in the same setting: to `COC(=O)N[C@H](C(=O)N1CCC[C@H]1c1nc(-c2ccc(-c3ccc(-c4c[nH]c([C@@H]5CCCN5C(=O)[C@@H](NC(=O)OC)C(C)C)n4)c4c3CCC4)cc2)c[nH]1)C(C)C` [Compound 306] belongs below 10 nM.

As to `COC(=O)N[C@H](C(=O)N1CCC[C@H]1C(=O)Nc1ncc(-c2ccc3nc(NC(=O)[C@@H]4CCCN4C(=O)Cc4ccccc4)ccc3c2)cn1)C(C)C` [Compound 214], the EC50 under setting [1] was in the range of 10 to 100 nM. On the same count and under the same terms, to `COC(=O)N[C@H](C(=O)N1CCC[C@H]1C(=O)Nc1ccc2cc(-c3ccc(NC(=O)[C@@H]4CCCN4C(=O)Cc4ccccc4)nc3)ccc2c1)C(C)C` [Compound 209] belongs below 10 nM. As to `COC(=O)N[C@H](C(=O)N1CCC[C@H]1c1ncc(-c2ccc(-c3ccc(-c4cnc([C@@H]5CCCN5C(=O)Cc5ccccc5)[nH]4)c4ccccc34)cc2)[nH]1)C(C)C` [Compound 307], the EC50 (Huh-7, 48 h, read-out: EC50 nM) is below 10 nM.

As to `COC(=O)N[C@H](C(=O)N1CCC[C@H]1C(=O)Nc1ccc2cc(-c3cnc(NC(=O)[C@@H]4CCCN4C(=O)[C@@H](NC(=O)OC)C(C)C)nc3)ccc2c1)C(C)C` [Compound 221], the EC50 under setting [1] is below 10 nM. Regarding `COC(=O)N[C@H](C(=O)N1CCC[C@H]1c1nc(-c2ccc(-c3ccc(-c4c[nH]c([C@@H]5CCCN5C(=O)Cc5ccccc5)n4)cc3)c3ccccc23)c[nH]1)C(C)C` [Compound 308], the EC50 under setting [1] was below 10 nM. Turning to `COC(=O)N[C@H](C(=O)N1CCC[C@H]1c1nc(-c2ccc(-c3ccc(-c4c[nH]c([C@@H]5CCCN5C(=O)[C@@H](NC(=O)OC)C(C)C)n4)c4sc(C)nc34)cc2)c[nH]1)C(C)C` [Compound 310], the EC50 under setting [1] is below 10 nM. Take `COC(=O)N[C@H](C(=O)N1CCC[C@H]1c1nc(-c2ccc3cc(-c4ccc5[nH]c([C@@H]6CCCN6C(=O)[C@@H](NC(=O)OC)C(C)C)nc5c4)ccc3c2)c[nH]1)C(C)C` [Compound 402]: the EC50 under setting [1] is below 10 nM. On the same count and under the same terms, under `COC(=O)NC(C(=O)N1CCC[C@H]1c1nc(-c2ccc(-c3ccc(-c4c[nH]c([C@@H]5CCCN5C(=O)[C@@H](NC(=O)OC)C(C)C)n4)c4c3CCCC4)cc2)c[nH]1)C(C)C` (some centres unmarked) [Compound 304] stands below 10 nM.
